Key:
IFNβ gene transcription = format: cell-based, human; details: 3, 6, and 19 hrs exposure; VACV-70 stimulated PBMCs
ENPP1 [1] = target: T1, ENPP1 (Homo sapiens, UniProt P22413); assay: ENPP1 enzyme assay with AMP-pNP substrate (hydrolysis of ATP analog); format: biochemical
T1 sequence (P22413 1-925): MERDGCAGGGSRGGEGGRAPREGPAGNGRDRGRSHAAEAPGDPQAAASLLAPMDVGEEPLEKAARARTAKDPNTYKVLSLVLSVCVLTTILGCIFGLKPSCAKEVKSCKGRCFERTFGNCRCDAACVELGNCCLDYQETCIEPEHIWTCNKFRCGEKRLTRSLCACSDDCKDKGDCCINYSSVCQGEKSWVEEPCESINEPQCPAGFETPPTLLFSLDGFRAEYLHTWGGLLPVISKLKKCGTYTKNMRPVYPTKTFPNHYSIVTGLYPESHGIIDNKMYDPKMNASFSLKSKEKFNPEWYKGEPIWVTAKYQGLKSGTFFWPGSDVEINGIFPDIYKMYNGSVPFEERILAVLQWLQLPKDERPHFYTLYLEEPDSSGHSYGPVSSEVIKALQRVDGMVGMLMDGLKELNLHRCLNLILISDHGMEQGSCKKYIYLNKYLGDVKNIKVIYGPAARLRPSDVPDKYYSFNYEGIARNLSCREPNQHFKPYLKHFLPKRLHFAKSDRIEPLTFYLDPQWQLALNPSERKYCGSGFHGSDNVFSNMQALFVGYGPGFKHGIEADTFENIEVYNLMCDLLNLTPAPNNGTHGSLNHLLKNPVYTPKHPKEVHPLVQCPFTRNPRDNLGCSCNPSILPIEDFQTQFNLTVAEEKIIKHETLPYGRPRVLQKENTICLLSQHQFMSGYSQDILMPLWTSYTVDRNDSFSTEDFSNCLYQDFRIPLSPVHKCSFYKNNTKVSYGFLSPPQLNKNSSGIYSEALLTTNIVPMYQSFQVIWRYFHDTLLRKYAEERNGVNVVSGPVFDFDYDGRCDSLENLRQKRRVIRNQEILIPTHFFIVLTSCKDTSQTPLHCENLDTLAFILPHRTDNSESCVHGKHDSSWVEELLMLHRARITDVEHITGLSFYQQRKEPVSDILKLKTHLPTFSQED
In short: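 Human recombinant ENPP1 (60 ng/well) with 300 µM AMP-pNP in 50 mM Tris-HCl pH 8.5, 250 mM NaCl, 0.5 mM CaCl2, 1 µM ZnCl2, 0.1% DMSO, 20 min at 37 °C.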

ENPP1 [2] = target: T1, ENPP1; assay: Indirect quantitation of 2',3'-cGAMP hydrolysis (AMP-Glo Assay kit); format: biochemical

COc1ccc2c(Oc3ccc(NS(N)(=O)=O)cc3)ccnc2c1 [Example 54, N-(4-((7-methoxyquinolin-4-yl)oxy)phenyl)sulfamide]
transcription of IFNβ (IFNβ gene transcription): enhances transcription of IFNβ | Ki (ENPP1 [1]): 100 to 1000 nM | Ki (ENPP1 [2]): < 100 nM

— patent publication US20230183239A1, “ECTONUCLEOTIDE PYROPHOSPHATASE-PHOSPHODIESTERASE 1 (ENPP-1) INHIBITORS AND USES THEREOF” (AbbVie Inc., priority 2017, published 2023)
